Tests used:
[1] = system: WT CYP121A1 heme thiolate-CO complex
CYP121A1 dimer = conditions: cited from earlier work
Mtb = conditions: cited from earlier work

O=C1N[C@@H](Cc2ccc(O)cc2)C(=O)N[C@H]1Cc1ccc(O)cc1 [cYY, cyclo-L-Tyr-L-Tyr]
change of heme thiolate-CO complex stability with bound substrate [1]: little change

Clc1ccccc1C(c1ccccc1)(c1ccccc1)n1ccnc1 [clotrimazole]
effect on dimerization of the enzyme (CYP121A1 dimer): disrupts dimerization of the enzyme

Clc1ccc(COC(Cn2ccnc2)c2ccc(Cl)cc2Cl)cc1 (centres unmarked) [econazole]
effect on dimerization of the enzyme (CYP121A1 dimer): disrupts dimerization of the enzyme

CC(=O)N1CCN(c2ccc(OCC3COC(Cn4ccnc4)(c4ccc(Cl)cc4Cl)O3)cc2)CC1 (centres unmarked) [ketoconazole]
effect of ligand on thermal stability (WT CYP121A1): modest increase in the stability | inhibition of Mtb growth (Mtb): does not significantly inhibit Mtb growth

From paper PMC7801616, “Surface hydrophobics mediate functional dimerization of CYP121A1 of Mycobacterium tuberculosis” (Scientific Reports, 2021)
